Test [1] relates to VEGF-induced angiogenesis in chicken egg. Kind of test: Chicken egg angiogenesis assay. It is filed as in vivo. To be noted: Figure 8. How it is done: Eggs from hen were incubated at 37 °C for 3 days, opened, and incubated for further 7 days. After further incubation for 5 days, angiogenesis was observed by microscope.
Test [2] has as its target T1, PKCε (Homo sapiens, UniProt Q02156).
T1 sequence (Q02156 1-737): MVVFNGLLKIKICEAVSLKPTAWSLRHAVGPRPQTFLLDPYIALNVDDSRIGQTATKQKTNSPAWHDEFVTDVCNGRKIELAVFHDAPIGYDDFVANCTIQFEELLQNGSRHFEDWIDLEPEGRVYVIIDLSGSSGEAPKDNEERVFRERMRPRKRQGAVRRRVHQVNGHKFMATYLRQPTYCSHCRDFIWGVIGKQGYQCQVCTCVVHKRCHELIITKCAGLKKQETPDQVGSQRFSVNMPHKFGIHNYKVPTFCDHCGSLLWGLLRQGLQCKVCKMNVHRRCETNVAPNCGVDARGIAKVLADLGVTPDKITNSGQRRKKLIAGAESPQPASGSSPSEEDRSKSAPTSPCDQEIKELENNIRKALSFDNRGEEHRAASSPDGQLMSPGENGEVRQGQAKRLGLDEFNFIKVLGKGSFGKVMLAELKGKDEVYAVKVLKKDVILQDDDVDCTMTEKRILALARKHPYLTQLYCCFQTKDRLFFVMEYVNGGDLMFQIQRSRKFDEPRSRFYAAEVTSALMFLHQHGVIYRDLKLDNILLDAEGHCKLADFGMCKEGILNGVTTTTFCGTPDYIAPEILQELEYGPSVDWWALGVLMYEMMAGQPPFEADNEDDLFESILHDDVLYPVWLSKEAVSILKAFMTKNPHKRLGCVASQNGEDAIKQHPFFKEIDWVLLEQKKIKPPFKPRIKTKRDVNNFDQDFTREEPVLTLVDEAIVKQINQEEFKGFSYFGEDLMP
Kind of test: PKC isozyme assay, PKCε. It is filed as biochemical. The following applies: 50 µM, Supp. Figure 2. As for the experimental part: Supporting Information Figure 2. Effect of compound 8 on PKC isozymes. 50 µM of compound
8 were used in the PKC assays as described in Gruber et al., J. Biochem. 2011, 149, 331-336. *p
= 0.015, **p = 0.0028, ***p = 0.0007. The control is standardized (100%). Therefore, the
standard deviation for the control is 0.
(1 picture or pasted object on this page, not shown here)

Test [3] deals with PKCδ. As to the kind of experiment: PKCδ translocation, cell fractionation and Western blotting in PC-3 cells. To be noted: TPA, Figure 3. It counts as cell-based, human. As for the experimental part:
For PKCε translocation PC-3 cells were starved for 16 h, treated with 8 for 30 min, stimulated with 50 nM TPA for 5 min, lysed, and fractionated with a CNMCS/CNM compartmental protein extraction kit (BioChain Institute, Newark, CA). Western blotting was performed by a standard procedure as described by Garczarczyk et al.[27],[40] Cytosolic and membrane fractions were loaded onto SDS gels and transferred to an Immobilon membrane (Millipore, Billerica, MA). The membranes were incubated with rabbit polyclonal IgG antibodies for detection of PKCε (Santa Cruz Biotechnology; dilution 1:2000), for PKCε phosphoSer^729 (Millipore; dilution 1:1000), for PKCδ (Santa Cruz Biotechnology; dilution 1:1000), and for MARCKS phosphoSer152/156 (Cell Signaling Technology, Danvers, MA; dilution 1:1000). For the loading control tubulin (Santa Cruz Biotechnology; dilution 1:1000), and as marker for the membrane fraction, an IGFI-βR rabbit polyclonal IgG antibody (Santa Cruz; dilution 1:1000) and, as secondary antibodies, peroxidase-conjugated AffiniPure goat anti-rabbit IgG (Jackson ImmunoResearch Laboratories, West Grove, PA; dilution 1:20000) were used. GAPDH (Chemicon, Millipore, Billerica, MA; dilution 1:10000) was used as loading control for the cytosolic fraction. […]
On the technique in general: Immunoblotting shows a protein as a band on a membrane.

Test [4] addresses T2, PKCβII/RACK1 interaction (Homo sapiens, UniProt P63244).
T2 construct: 6-His
Kind of test: PKCβII/RACK1 in vitro binding assay. To be noted: Figure 2B. As for the experimental part:
This assay was similar to the PKCε/RACK2 binding assay described above. 6-his-tagged RACK1 was cloned into a pET-30a(+) vector (Novagen, Merck KGaA, Darmstadt, Germany) and purified with Ni-NTA agarose (Qiagen, Hilden, Germany). Final elution was performed with 500 nM imidazole in elution buffer (20 mM Tris-HCl/300 mM NaCl, 20% glycerol, pH 7.5). The integrity of purified recombinant protein was analyzed by Coomassie Blue staining and Western blotting. Then 200 ng RACK1 was coated onto 96-well EIA/RIA high binding plates (Costar, Corning, New York, NY) at 4 °C on a shaker with gentle agitation overnight. Compound 8 was added at room temperature for 30 min. Then 500 ng of recombinant GST-tagged PKCβII (ProQinase) was activated with CaCl2, phosphatidylserine, and TPA for 10 min. The RACK1-coated plates with and without 8 were incubated for 1 h with activated PKCβII. The interaction was determined with a primary rabbit anti-GST antibody (Santa Cruz) and corresponding HRP-conjugated goat anti-rabbit HRP conjugated secondary antibody (Santa Cruz) as described above for the PKCε/RACK2 interaction.

For test [5], the target named is BTK (Homo sapiens, UniProt Q06187). As to the kind of experiment: Kinase profiling (Dundee), BTK. It counts as biochemical. The following applies: 25 μM solution.
Sequence of BTK (Q06187 whole entry, species assumed): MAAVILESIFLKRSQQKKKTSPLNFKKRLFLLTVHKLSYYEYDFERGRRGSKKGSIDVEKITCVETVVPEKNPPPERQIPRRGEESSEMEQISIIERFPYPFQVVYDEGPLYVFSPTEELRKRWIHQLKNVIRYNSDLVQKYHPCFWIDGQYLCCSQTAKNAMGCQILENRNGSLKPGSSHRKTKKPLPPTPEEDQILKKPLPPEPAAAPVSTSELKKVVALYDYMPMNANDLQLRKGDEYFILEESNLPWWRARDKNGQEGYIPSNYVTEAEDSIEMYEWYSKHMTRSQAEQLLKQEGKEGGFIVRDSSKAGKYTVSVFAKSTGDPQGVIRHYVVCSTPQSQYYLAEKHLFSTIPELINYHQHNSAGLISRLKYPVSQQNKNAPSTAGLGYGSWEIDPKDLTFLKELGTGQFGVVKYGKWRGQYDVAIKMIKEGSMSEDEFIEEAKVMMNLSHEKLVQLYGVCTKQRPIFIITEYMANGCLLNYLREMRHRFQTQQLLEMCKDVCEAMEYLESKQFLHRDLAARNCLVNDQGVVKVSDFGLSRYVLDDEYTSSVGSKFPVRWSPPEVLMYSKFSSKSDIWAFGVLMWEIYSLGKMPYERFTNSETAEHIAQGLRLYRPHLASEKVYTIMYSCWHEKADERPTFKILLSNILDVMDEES
Test [6] relates to 109 different protein kinases. As to the kind of experiment: Screen of 109 kinases (Dundee). It is filed as biochemical. The following applies: 25 μM solution; many kinases.
Test [7] has as its system HeLa cells containing a doxycycline-inducible constitutively active PKCε. Kind of test: Scratch migration assay. It is filed as cell-based. The following applies: 25 μM, 24 h, doxycycline 2 μg/mL. How it is done:
For cell migration and motility, a scratch migration assay described by Cha et al.[41] was employed. In a tissue culture dish, with logarithmically growing HeLa cells containing a doxycycline-inducible constitutively active PKCε, a migration gap of approximately 1 mm was created by introducing a “scratch” to the adherent layer of cultured cells using a sterile Gilson 200 μL pipet tip. The scratch was administered by hand with sufficient pressure to remove adherent cells from the polystyrene substrate but without causing physical damage to the polystyrene surface. The dish was washed with PBS to remove the cells and further incubated with 2 μg/mL doxycycline and 25 μM 8 for 24 h. Controls were left either untreated or were incubated with 2 μg/mL doxycycline and DMSO. […] Invasion of HeLa cells through a reconstituted basement membrane matrix was determined with a cell invasion assay kit from Chemicon (no. ECM550) as described by the manufacturer.

Consider `CC(=O)c1cccc(NC(=O)c2sc3nc4cc5c(cc4cc3c2N)OCCO5)c1` [Compound 8, N-(3-acetylphenyl)-9-amino-2,3-dihydro-1,4-dioxino[2,3-g]thieno[2,3-b]quinoline-8-carboxamide], for which the “Induction of angiogenesis by vascular endothelial growth factor” value in test [1] is given as “inhibited”. For the same compound, the “Inhibition of PKCε in vitro” value in test [2] is “does not inhibit”. Further, the “PKCδ in the membrane” value in test [3] is on record as “did not decrease”. Besides, in test [4], the “Prevention of the PKCβII/RACK1 interaction” value is “does not prevent”. Further, the “BTK activity, % of control” value in test [5] is 42 % of control. The “Effect on kinases in a screen of 109 kinases” value in test [6] is “not or only slightly affected”. Moreover, the “PKCε-induced migration of cells into a gap” value in test [7] is listed as “inhibited”.

These data come from article PMC4001449, “Thienoquinolines as Novel Disruptors of the PKCε/RACK2 Protein–Protein Interaction” (Journal of Medicinal Chemistry, 2014).
